Laboratory results taken from paper PMC3914206.

What was measured:
[1] = target: T1, panel of 442 kinases (Homo sapiens, UniProt P37173); assay type: binding; conditions: kinase TGFBR2; compound concentration 10 µM
T1 construct: purchased KINOMEscan
Description: (§1) We assessed the selectivity of members of this scaffold using the KINOMEscan methodology across a near comprehensive panel of 442 kinases [[18,27]].

[2] = target: T2, panel of 442 kinases (Homo sapiens, UniProt Q04771); assay type: binding; conditions: Compound Concentration 10 µM
T2 construct: purchased KINOMEscan
T2 sequence (Q04771 21-509): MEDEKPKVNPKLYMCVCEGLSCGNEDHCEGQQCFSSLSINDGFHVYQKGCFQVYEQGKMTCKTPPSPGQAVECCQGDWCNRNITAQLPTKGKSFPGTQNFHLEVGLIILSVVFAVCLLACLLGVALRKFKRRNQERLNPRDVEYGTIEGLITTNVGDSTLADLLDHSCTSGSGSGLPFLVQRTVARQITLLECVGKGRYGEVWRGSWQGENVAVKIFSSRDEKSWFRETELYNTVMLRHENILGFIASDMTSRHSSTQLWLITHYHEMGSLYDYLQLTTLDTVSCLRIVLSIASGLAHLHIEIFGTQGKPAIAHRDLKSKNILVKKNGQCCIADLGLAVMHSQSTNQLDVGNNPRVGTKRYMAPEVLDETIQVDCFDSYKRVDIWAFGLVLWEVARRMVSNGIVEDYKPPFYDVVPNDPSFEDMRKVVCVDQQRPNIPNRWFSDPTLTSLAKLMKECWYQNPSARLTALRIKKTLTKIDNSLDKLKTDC
Description: as §1

T1 sequence (P37173 23-567): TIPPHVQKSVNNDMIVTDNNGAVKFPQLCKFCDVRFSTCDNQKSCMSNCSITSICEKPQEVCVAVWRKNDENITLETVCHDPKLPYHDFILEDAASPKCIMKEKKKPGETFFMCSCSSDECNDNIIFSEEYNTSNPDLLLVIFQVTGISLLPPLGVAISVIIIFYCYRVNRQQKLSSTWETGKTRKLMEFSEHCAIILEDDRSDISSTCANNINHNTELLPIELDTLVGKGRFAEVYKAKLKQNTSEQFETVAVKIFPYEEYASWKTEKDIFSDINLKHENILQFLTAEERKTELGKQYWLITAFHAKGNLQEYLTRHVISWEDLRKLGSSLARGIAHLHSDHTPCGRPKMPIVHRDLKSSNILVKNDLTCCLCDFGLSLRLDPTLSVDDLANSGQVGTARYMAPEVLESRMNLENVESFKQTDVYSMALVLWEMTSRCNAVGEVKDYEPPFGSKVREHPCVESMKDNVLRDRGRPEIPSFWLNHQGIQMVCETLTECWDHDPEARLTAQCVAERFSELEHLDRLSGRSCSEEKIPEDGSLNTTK

Row | Compound | % Ctrl, TGFBR2 [1] [% Ctrl] | KINOMEscan: ACVR1 [2]
1 | COc1cc(C(=O)N2CCC(N3CCN(C)CC3)CC2)ccc1Nc1ncc2c(n1)N1CCc3cccc(c31)C(=O)N2C [Compound 24] | 100 | 
2 | CCOc1cc(C(=O)N2CCC(N3CCN(C)CC3)CC2)ccc1Nc1ncc2c(n1)N(C1CCCC1)c1ccccc1C(=O)N2C [Compound 26] | 100 | 100
3 | COc1cc(C(=O)N2CCC(N3CCN(C)CC3)CC2)ccc1Nc1ncc2c(n1)N(C1CCCC1)c1ccccc1C(=O)N2C [Compound 25, 11-cyclopentyl-2-((2-methoxy-4-(4-(4-methylpiperazin-1-yl)piperidine-1-carbonyl)phenyl)amino)-5-methyl-5H-benzo[e]pyrimido[5,4-b][1,4]diazepin-6(11H)-one] | 100 | 100
4 | COc1cc(C(=O)N2CCC(N3CCN(C)CC3)CC2)ccc1Nc1ncc2c(n1)N(C)c1ccccc1C(=O)N2C [15 (LRRK2-IN-1)] | 100 | 98
